One assay deals with gastric acid secretion. As to the kind of experiment: Gastric acid secretion inhibition, modified Shay rat procedure. Format: in vivo, rats (male, CFE strain). Particulars: intraduodenal. The text has this:
The novel compounds of the present invention are effective inhibitors of gastric acid secretion and of ulcer development in experimental animals, and thus are potentially valuable as agents for the control of gastric secretion and of gastric erosion and as anti-ulcer agents. Gastric acid secretion inhibitory action is usually measured by the "Shay rat" procedure ^(1,2) with some modifications as follows.
(1) Shay et al., Gastroenterology, 5, 43 (1945).
The rats (male, CFE strain) were starved for 48 hours (water was given ad libitum) to permit evacuation of stomach contents. On the morning of the experiment, under ether anesthesia, the abdominal region was shaved and a midline incision (1-11/2" ) was made with a scapel. With the help of a closed curved hemostat the duodenum was picked up. Upon getting the duodenum into view, fingers were used to pull the stomach through the opening, the stomach was then gently manipulated with fingers to rid stomach of air and residual matter which were pushed through the pylorus. Two-5 inch sutures were drawn under the pyloric-duodenal puncture. A ligature at the juncture, was formed with one of the threads. The second ligature was also formed but not tightened.
The test compound or the vehicle, usually 1 ml./100 g. body weight, were injected into the duodenum as close as possible to the first ligature. After injection the second ligature was tightened below the injection site to minimize leakage. The stomach was placed back through the opening into the abdominal cavity, the area of incision was washed with saline and the incision was closed with autoclips. (Occasionally, instead of an intraduodenal injection, animals were dosed by the oral or subcutaneous route. In the latter case, dosing was done thirty to sixty minutes before the operation.)
The abdominal cavity was exposed by cutting with scissors and the esophagus close to the stomach was clamped off with a hemostat, the stomach was removed by cutting above the hemostat (the esophagus was cut) and between the two sutures. Extraneous tissue was removed, the stomach washed with saline and blotted on gauze. A slit was carefully made in the stomach which was held over a funnel and the contents were collected in a centrifuge tube. The stomach was further cut along the outside edge and turned inside out. Two ml. H2 O were used to wash the stomach contents into the respective centrifuge tube. The combined stomach contents and wash were then centrifuged out for 10 minutes in the International Size 2 Centrifuge (setting at 30). The supernatant was collected, volume measured and recorded, 2 drops of a phenylphthalein indicator (1% in 95% ethanol) were added and the solution was titrated with 0.02 N NaOH (or with 0.04 N NaOH when large volumes of stomach contents were encountered) to pH 8.4 (because of usual coloring of the stomach contents, phenolphthalein was only used to permit visual indication that the end point was near) and the amount of acid present was calculated.
Compounds inducing inhibition of gastric acid secretion of 20% or more were considered active. In a representative operation, and merely by way of illustration, the results obtained with this assay with typical compounds of the present invention are given in Table II below.

For assay [1], the system named is bronchospasms elicited by acetylcholine. As to the kind of experiment: Bronchodilator activity (Konzett assay), acetylcholine bronchospasm. In kind it is in vivo, guinea pigs. Particulars: Cavia porcellus; spasmogenic agent acetylcholine; three logarithmic cumulative intravenous doses. Here is the method:
(§1) Bronchodilator activity was determined in guinea pigs against bronchospasms elicited by intravenous injections of 5-hydroxytryptamine, histamine or acetylchlorine by the Konzett procedure. (See J. Lulling, P. Licvens, F. El Sayed and J. Prignot, Arzneinittel-Forschung, 18, 995 (1968).]
(§2) In the Table which follows bronchodilator activity for representative compounds of this invention against one or more of the three spasmogenic agents is expressed as an ED50 determined from the results obtained with three logarithmic cumulative intravenous doses.

Assay [2] relates to ulcerogenic effects induced by indomethacin (stomach ulcers). In kind it is in vivo, rat. Particulars: indomethacin 20 mg/kg s.c., score 0-4. On the procedure:
It is further to be noted that although prostaglandins in general are not effective when administered by oral route, the compounds of this invention are effective orally. The assay to determine the protective effect of these compounds is carried out in the following manner.
Rats were starved for 48 hours (water was given ad libitum). Indomethacin (20 mg./kg. of body weight) was administered by the subcutaneous route and one-half the dose of the test compound was administered by gavage at the same time. After three hours, the second half of the test compound was administered, also by gavage. Five hours after the administration of indomethacin the animals were decapitated and the stomachs removed. The stomachs were washed with distilled water, blotted on gauze, cut along the larger curvature, and the contents rinsed with distilled water. The stomachs were spread out, pinned on a cork and visualized under magnifying glass for ulcers. The criteria for scoring of ulcers was as previously reported. [Abdel-Galil et al. Brit. J. Pharmac. Chemotherapy 33:1-14 (1968)]. […]
1 Petechial hemorrhage of pin point ulcers
3 Many ulcers, a few large
4 Many ulcers, mainly large
Control animals treated with indomethacin but not test compound consistently give scores of about 2.5-3.5. Control animals treated with neither indomethacin not test compound give scores of about 0.5-0.8. Compounds diminishing the control ulcer score by 0.5 unit or more are considered to be active.

In assay [3] the test system is bronchospasms elicited by 5-hydroxytryptamine. As to the kind of experiment: Bronchodilator activity (Konzett assay), 5-hydroxytryptamine bronchospasm. In kind it is in vivo, guinea pigs. Particulars: spasmogenic agent 5-hydroxytryptamine, three logarithmic cumulative intravenous doses; for ED50: Cavia porcellus. On the procedure: as §1, §2
In assay [4] the test system is basal gastric acid secretion. As to the kind of experiment: Inhibition of total acid output (basal gastric acid secretion) in the acute gastric fistula rat. Format: in vivo, female Sprague-Dawley rats. Particulars: intraduodenal, 10 mg/kg; for inhibition in vivo at 10 mg/kg: Rattus norvegicus. Here is the method:
Inhibition of basal gastric acid secretion can be determined by the following procedure.
Female Sprague-Dawley rats weighing 140-160 grams are fasted in individual cages for 18-24 hours. The rats are then lightly anesthetized with ether and their front teeth extracted to avoid destruction of the plastic cannula. A midline incision is then made and the stomach and duodenum exposed. A flanged polyvinyl tube is inserted into the fundic portion of the stomach and secured with a purse string suture line using 4-O Mersilene. The rat is then dosed by injection of the compound into the duodenum (1.0 ml. per 100 gram body weight). After dosing, the abdominal wall and skin are closed using metal wound clips. The rat is replaced in a cage containing a longitudinal slit to allow the polyvinyl tube to hang freely. An 8 ml. plastic collecting tube is attached to the flanged cannula and hangs freely below the cage. The first 30 minute sample is discarded designating this time as zero. The collecting tube is attached again and samples removed at the end of 60 and 120 minutes. These samples are referred to as "A" and "B" in the table. The hourly samples are then transferred to a 15 ml. centrifuge and centrifuged for 5-10 minutes. Total and sediment volume are then recorded with the supernatent volume being used as volume of secretion. A 1 ml. or less aliquot is then removed and placed in a 50 ml. beaker containing 10 ml. of distilled water. This sample is then titrated using 0.01 N NaPH to pH 7.0 using a Beckman zeromatic pH meter. Volume, titratable acidity (mew/L) and total acid output (ueq/hour) are recorded. Percent inhibition is determined by comparison with the appropriate control. Groups of three rats were used for preliminary testing, and groups of six rats were used for dose-response evaluations. All compounds are administered in a vehicle consisting of 0.5% methocel, 0.4% tween 80, and saline at a constant volume of 1 ml./100 gram rat. Samples are dispersed by sonification. Percent inhibition is calculated on basis of concurrent vehicle control.
In Table III which follows is given the effect on total acid output after 60 minutes and 120 minutes of intraduodenal dose, of representative compounds of this invention.

The subject of assay [5] is bronchospasms elicited by histamine. As to the kind of experiment: Bronchodilator activity (Konzett assay), histamine bronchospasm. Format: in vivo, guinea pigs. Particulars: spasmogenic agent histamine, three logarithmic cumulative intravenous doses; for ED50: Cavia porcellus, iv. On the procedure: as §1, §2
[6] abbreviates: Rattus norvegicus, 50 mg/kg, read-out: Percent inhibition of gastric acid secretion.
[7] abbreviates: total oral dose 12.5 mg/kg, controls 2.5-3.0.
[8] abbreviates: total oral dose 50 mg/kg, controls 2.5-3.2.
The mark [9] stands for this setting: 1 h, 60 min, read-out: % Inhibition of total acid output, after 60 minutes (A).
[10] abbreviates: 2 h, 120 min, read-out: % Inhibition of total acid output, after 120 minutes (B).
Where [11] appears, read: total oral dose 25 mg/kg, controls 2.7-3.9.

Read-outs that look alike come from different tables or passages of the source.

For orientation: ED50 means the dose at which the effect has come halfway, by size or by number of responders. The low end stands for an effect at a small dose, the high end for a need for a large dose.

As to `CCCCC[C@H](O)CC[C@H]1[C@H](C)CC(=O)[C@@H]1CCCCCCC(=O)O` [11-deoxy-11α-methyl-13,14-dihydroprostaglandin E1], the inhibition in vivo at 50 mg/kg in the assay with gastric acid secretion (setting [6]) is 45%. In assay [1], this molecule displayed an ED50 of 0.773 mg/kg. In addition, the “Ulcer score, treated animals” value in assay [2] (setting [7]) worked out at 2.3; in assay [2] (setting [8]), 1.7.
As for `CCCCC[C@H](O)/C=C/[C@H]1[C@H](C(N)=O)CC(=O)[C@@H]1C/C=C\CCCC(=O)O` [11α-carboxamido-11-deoxyprostaglandin E2], in the assay with gastric acid secretion (50 mg/kg), the “Percent inhibition of gastric acid secretion” value is 27%. For the same molecule, the “ED50, bronchodilator activity” value in assay [3] turned out to be 1.7 mg/kg; in assay [5], 0.53 mg/kg. In addition, in assay [4] (60 min), the “% Inhibition of total acid output, after 60 minutes (A)” value came to 27%. Also, in assay [4] (120 min), the “% Inhibition of total acid output, after 120 minutes (B)” value turned out to be 35%.
As to `CCCCC[C@H](O)/C=C/[C@@H]1[C@@H](C/C=C\CCCC(=O)O)[C@@H](O)C[C@H]1SC` [11α-methylthio-11-deoxyprostaglandin F2α], the inhibition in vivo at 50 mg/kg with gastric acid secretion (setting [6]) stood at 61%. Moreover, the ED50 in assay [3] was found to be 2.63 mg/kg; in assay [5], 1.6 mg/kg. Also, the “Ulcer score, treated animals” value in assay [2] (setting [7]) is given as 1.2.
Turning to `CCCCC[C@@H](/C=C/[C@H]1C(C#N)CC(=O)[C@@H]1C/C=C\CCCC(=O)OC)OC(C)=O` (stereo partly drawn) [11α/11β-cyano-11-deoxy-15-O-acetyl-prostaglandin E2 methyl ester], the inhibition in vivo at 25 mg/kg in the assay on gastric acid secretion (Rattus norvegicus, 25 mg/kg, read-out: Percent inhibition of gastric acid secretion) stood at 51%. Moreover, the “Ulcer score, treated animals” value in assay [2] (setting [7]) worked out at 2.0; in assay [2] (setting [8]), 1.3. Further, the inhibition in vivo at 10 mg/kg in assay [4] (setting [9]) was 40%; in assay [4] (setting [10]), 34%.
`CCCCCC(C)/C=C/[C@H]1[C@H](C)CC(=O)[C@@H]1C/C=C\CCCC(=O)O` (stereo partly drawn) [l-11α,15-dimethyl-11,15-bisdeoxyprostaglandin-E2]: in the assay with gastric acid secretion (setting [6]), the inhibition in vivo at 50 mg/kg was 60%. Besides, the median effective dose (ED50) in assay [3] stood at 18.1 mg/kg.
As for `CCCCC[C@H](O)/C=C/[C@@H]1[C@@H](C/C=C\CCCC(=O)O)[C@@H](O)C[C@H]1C#N` [l-11α-cyano-11-deoxyprostaglandin-F2 α, 11α-cyano-11-deoxyprostaglandin F2 α], the inhibition in vivo at 50 mg/kg in the assay on gastric acid secretion (setting [6]) is 43%. For the same molecule, the figures for the ED50 in assay [1] and in assay [3] were 0.051 mg/kg and 0.03 mg/kg, respectively. In addition, the “Ulcer score, treated animals” value in assay [2] (setting [11]) amounted to 1.3.
For `CC/C=C\CC(O)/C=C/C1C(C/C=C\CCCC(=O)O)C(=O)CC1C(C(=O)O)C(=O)O` (stereo not drawn) [l-11α-dicarboxymethyl-11-deoxyprostaglandin-E3], the “ED50, bronchodilator activity” value in assay [3] was 3.3 mg/kg.
Take `CCCCC[C@H](O)/C=C/[C@H]1[C@H](CC)CC(=O)[C@@H]1C/C=C\CCCC(=O)O` [l-11α-ethyl-11-deoxyprostaglandin-E2, 11-deoxy-11α-ethyl-prostaglandin E2]: the ED50 was 3.9 mg/kg in assay [1] and 1.24 mg/kg in assay [5]. Further, the “Ulcer score, treated animals” value in assay [2] (setting [11]) is listed as 2.2. For the same molecule, the inhibition in vivo at 10 mg/kg in assay [4] (setting [9]) came out at 57%; in assay [4] (setting [10]) it was 66%.
With `CCCCC[C@H](O)/C=C/[C@@H]1[C@@H](C/C=C\CCCC(=O)O)C(=O)C[C@H]1C(C)C` [l-11α-isopropyl-11-deoxyprostaglandin-E2, 11-deoxy-11α-isopropyl-prostaglandin E2], the inhibition in vivo at 50 mg/kg in the assay with gastric acid secretion (setting [6]) is 42%. This molecule returned a 50% effective dose (ED50) in assay [3] of 8.95 mg/kg.
On to `CCCCC[C@H](O)/C=C/[C@@H]1[C@@H](C/C=C\CCCC(=O)O)[C@@H](O)C[C@H]1C` [l-11α-methyl-11-deoxyprostaglandin-F2 α, 11-deoxy-11α-methyl-prostaglandin F2α], for which the inhibition in vivo at 50 mg/kg with gastric acid secretion (setting [6]) worked out at 70%. Also, the ED50 was found to be 0.038 mg/kg in assay [3] and 0.013 mg/kg in assay [5]. Further, the “Ulcer score, treated animals” value in assay [2] (setting [11]) is reported as 1.8.
Take `CCCCC[C@H](O)/C=C/[C@@H]1[C@@H](C/C=C\CCCC(=O)O)C(=O)C[C@H]1c1ccccc1` [l-11α-phenyl-11-deoxyprostaglandin-E2, l-11-deoxy-11α-phenylprostaglandin-E2]: the inhibition in vivo at 50 mg/kg in the assay with gastric acid secretion (setting [6]) was determined as 58%. This molecule also showed a median effective dose (ED50) in assay [3] of 0.46 mg/kg.
Regarding `C=C[C@@H]1CC(=O)[C@H](C/C=C\CCCC(=O)O)[C@H]1/C=C/[C@@H](O)CCCCC` [l-11α-vinyl-11-deoxyprostaglandin-E2, 11-deoxy-11α-vinyl-prostaglandin E2], the inhibition in vivo at 50 mg/kg with gastric acid secretion (setting [6]) was determined as 59%. Besides, the median effective dose (ED50) in assay [3] was determined as 1.2 mg/kg; in assay [5], 1.3 mg/kg.
As for `CCCCC[C@H](O)/C=C/[C@H]1[C@@H](C#N)CC(=O)[C@@H]1C/C=C\CCCC(=O)O` [l-11β-cyano-11-deoxyprostaglandin-E2, l-11-deoxy-11β-cyanoprostaglandin-E2], the results for the ED50 in assay [3] and in assay [5] were 3.1 mg/kg and 54.9 mg/kg, respectively. Also, the inhibition in vivo at 10 mg/kg in assay [4] (setting [9]) is 26%; in assay [4] (setting [10]), 43%.

The values above are taken from patent publication US4444691A, “11-Cyano-prostaglandins of the F-series” (American Cyanamid Company, priority 1982, dated 1984).
